Legend:
[1] = test system: IL-6, TGF-β, TIMP1 and COL-1-A1 in kidney tissue of CKD rats; experiment: Western blot of inflammatory proteins in kidney tissue of CKD rats; format: in vivo, Sprague Dawley rats
Protocol: SD rats (about 10 weeks old) scheduled to undergo 5/6 nephrectomy or sham surgery were anesthetized by Zoletil 50/Xylazine (6 mg/1.3 mg/Kg, i.p.). Then, the left kidney was exposed, and the upper and lower poles were tied with a suture line, followed by right nephrectomy. The peritoneum and skin were then sutured, and the animals were returned to their individual cages. […] Two weeks after sham or 5/6 nephrectomy surgery, the animals were subjected to a 24-hour urine collection and non-invasive tail blood pressure measurement every 4 weeks. Four weeks after the surgery, rats underwent 5/6 nephrectomy or shame surgery were randomly assigned into two groups, i.e., the control and the telbivudine groups, in which the control group received saline treatment, and rats in the telbivudine group received telbivudine (10 mg/mL/Kg) treatment for 8 or 12 weeks. Animals were then sacrificed, and kidney and heart biopsy samples were obtained.
For protein identification, 30 μg nuclear extracted protein was loaded in each lane of the SDS-PAGE gel (8%) and separated by electrophoresis. The separated proteins were then electro-transferred to polyvinylidene fluoride (PVDF) membranes (GE Healthcare Bio-Sciences, Little Chalfont, UK), and blocked with 5% fat-free skim milk in TRIS-buffered saline containing 0.01% Tween-20 for 60 min at room temperature. The membrane was then incubated with rabbit polyclonalanti-IL-6, TGF-β, TIMP-1 and COL1-1 (diluted 1:1000 in PBS/5% skim milk; Novus. Biologicals) antibodies overnight at 4, respectively. HRP conjugated anti-rabbit IgG (Promega) was then used as secondary antibody. Immunoreactive protein was visualized by the chemiluminescence protocol (ECL, GE HealthcareBio-Sciences). Anti-actin rabbit polyclonal antibody (1:1000; Sigma-Aldrich) was used for calibration.
(§1) 5/6 nephrectomy is a procedure in which one kidney of a test animal is removed and 2/3 of the remaining kidney is ablated, thereby mimics the progressive renal failure after loss of renal mass in humans. Briefly, approximately 50% of the remaining kidney of the rat was removed by polar excision 1-2 weeks after uni-nephrectomy. Then, the animals were randomly assigned to two groups, the telbivudine group and the control group. […] Blood and urine samples were respectively collected on designated days and analyzed for the levels of blood urine nitrogen (BUN), serum creatine (CR), and hepatic enzymes (i.e., alanine aminotransferase (ALT) and aspartate aminotransferase (AST)). Heart function was determined by monitoring the changes in diastolic parameter—Tissue Velocity Imaging (TVI_V), E/A ratio, and the strain in cardia muscle (C_strain), left ventrical mass (LVMASS). […]

CKD rats [2] = experiment: Cardiac muscle strain measurement by heart ultrasound in CKD rats; format: in vivo, Sprague Dawley rats; settings: vs control animals
Protocol: SD rats (about 10 weeks old) scheduled to undergo 5/6 nephrectomy or sham surgery were anesthetized by Zoletil 50/Xylazine (6 mg/1.3 mg/Kg, i.p.). Then, the left kidney was exposed, and the upper and lower poles were tied with a suture line, followed by right nephrectomy. The peritoneum and skin were then sutured, and the animals were returned to their individual cages. For animals underwent sham surgery, the left kidney was exposed in similar manner, but was then placed back into the abdominal cavity without further treatment, peritoneum and skin were then sutured. Two weeks after sham or 5/6 nephrectomy surgery, the animals were subjected to a 24-hour urine collection and non-invasive tail blood pressure measurement every 4 weeks. […] Once the animal became unconscious, it was then connected to heart ultrasound machine (Vivid i, General Electric Company, US) and heart function paraments including changes in diastolic parameter-Tissue Velocity Imaging (TVI_V) and E/A ratio, the strain in cardia muscle (C_strain), and left ventrical mass ([…]) were respectively measured. […] Blood and urine samples were respectively collected on designated days and analyzed for the levels of blood urine nitrogen (BUN), serum creatine (CR), and hepatic enzymes (i.e., alanine aminotransferase (ALT) and aspartate aminotransferase (AST)). […]

[3] = test system: IL-6 and COL-1-A1 in heart tissue of CKD rats; experiment: Western blot of IL-6 and COL-1-A1 in heart tissue of CKD rats; format: in vivo, Sprague Dawley rats
Protocol: SD rats (about 10 weeks old) scheduled to undergo 5/6 nephrectomy or sham surgery were anesthetized by Zoletil 50/Xylazine (6 mg/1.3 mg/Kg, i.p.). Then, the left kidney was exposed, and the upper and lower poles were tied with a suture line, followed by right nephrectomy. The peritoneum and skin were then sutured, and the animals were returned to their individual cages. […] Two weeks after sham or 5/6 nephrectomy surgery, the animals were subjected to a 24-hour urine collection and non-invasive tail blood pressure measurement every 4 weeks. […]
as §1, with “humans.” for “humans. Briefly, approximately 50% of the remaining kidney of the rat was removed by polar excision 1-2 weeks after uni-nephrectomy. Then, the animals were randomly assigned to two groups, the telbivudine group and the control group.”

CKD rats [4] = test system: CKD rats; parameters: species or system Sprague Dawley rats; settings: rat, in vivo
Description: 5/6 nephrectomy is a procedure in which one kidney of a test animal is removed and 2/3 of the remaining kidney is ablated, thereby mimics the progressive renal failure after loss of renal mass in humans. Briefly, approximately 50% of the remaining kidney of the rat was removed by polar excision 1-2 weeks after uni-nephrectomy. Then, the animals were randomly assigned to two groups, the telbivudine group and the control group. Rats in the telbivudine group were orally fed with telbivudine (at a dosage of 100 mg/Kg) for 4, 8 or 12 weeks, while the animals in the control group were given just the water. Blood and urine samples were respectively collected on designated days and analyzed for the levels of blood urine nitrogen (BUN), serum creatine (CR), and hepatic enzymes (i.e., alanine aminotransferase (ALT) and aspartate aminotransferase (AST)). Heart function was determined by monitoring the changes in diastolic parameter—Tissue Velocity Imaging (TVI_V), E/A ratio, and the strain in cardia muscle (C_strain), left ventrical mass (LVMASS). Animals were sacrificed after the experiments were finished, and kidney biopsy samples were obtained.
In this example, the effect of telbivudine on liver function was investigated.

SMILES: Cc1cn([C@@H]2C[C@@H](O)[C@H](CO)O2)c(=O)[nH]c1=O [telbivudine]
- protein level of COL-1-A1 [1]: reduced
- protein level of IL-6 [1]: reduced
- protein level of TGF-β [1]: reduced
- protein level of TIMP1 [1]: reduced
- C-strain values (strain in cardia muscle) (CKD rats [2]; CKD animals treated with telbivudine for 8 weeks): significant improvement
- C-strain values (strain in cardia muscle) (CKD rats [2]; CKD animals treated with telbivudine for 12 weeks): significant improvement
- protein level of COL-1-A1 [3]: markedly reduced
- protein level of IL-6 [3]: markedly reduced
- level of alanine aminotransferase (ALT) (CKD rats [4]): remained relatively the same
- level of aspartate aminotransferase (AST) (CKD rats [4]): remained relatively the same
- toxic effects toward liver function (CKD rats [4]): does not possess any toxic effects

From patent US10525073B2, “Method for improving kidney and/or heart function in patients with kidney disease” (MacKay Memorial Hospital, priority 2015, dated 2020)
